From patent publication US20240083853A1, “HSD17B13 INHIBITORS AND USES THEREOF” (FL2022-001, Inc., priority 2020, published 2024)
Counter-ions that a name gives are not always drawn.

Each compound was assayed against T1, Recombinant human HSD17B13 enzyme (Homo sapiens, UniProt Q7Z5P4) (assay: HSD17b13 NAD(P)H-Glo biochemical assay). Conditions: 50 uM estradiol, 1 mM NAD+, NAD(P)H-Glo luminescence; read-out: HSD17β13 IC50.
T1 sequence (Q7Z5P4 20-300): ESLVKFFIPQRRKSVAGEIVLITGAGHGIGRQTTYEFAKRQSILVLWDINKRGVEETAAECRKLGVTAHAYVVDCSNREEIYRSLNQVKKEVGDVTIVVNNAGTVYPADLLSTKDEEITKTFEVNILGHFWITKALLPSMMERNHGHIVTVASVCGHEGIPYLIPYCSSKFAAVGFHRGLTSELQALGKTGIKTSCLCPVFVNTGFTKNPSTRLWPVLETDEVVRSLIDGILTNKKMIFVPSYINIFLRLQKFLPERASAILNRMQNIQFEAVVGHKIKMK
Outline: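 Luminescent NAD(P)H-Glo read-out, taken after 1 hour at RT, measured cofactor reduction. Substrate and cofactor were estradiol at 50 uM and NAD+ at 1 mM final, reacted with the recombinant human enzyme for 3 hours at 37° C in 20 mM Tris pH7.4, 0.002% Tween-20, 0.02% BSA. Compound was pre-incubated with enzyme for 20 minutes at RT.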

| SMILES | IC50 |
| --- | --- |
| Oc1c(F)cc2cnn(-c3ccc(-c4cc[nH]n4)cc3)c2c1F [Compound 14.2, 1-(4-(1H-Pyrazol-3-yl)phenyl)-5,7-difluoro-1H-indazol-6-ol] | 0.1 to 1 µM |
| O=C(O)c1cccc(-c2ccc(-n3ncc4cc(F)c(O)cc43)cc2)c1 [Compound 13.29, 4′-(5-Fluoro-6-hydroxy-1H-indazol-1-yl)-[1,1′-biphenyl]-3-carboxylic acid] | 1 to 30 µM |
| CC1(C)CCN(c2ccc(-n3[nH]c(=O)c4cc(F)c(O)c(F)c43)cc2)CC1 [Compound 36, 1-(4-(4,4-Dimethylpiperidin-1-yl)phenyl)-5,7-difluoro-6-hydroxy-1H-indazol-3(2H)-one] | 0.1 to 1 µM |
| CC1(C)CCN(c2ccc(-n3ncc4cc(F)c(O)nc43)cc2)CC1 [Compound 25.2, 1-(4-(4,4-Dimethylpiperidin-1-yl)phenyl)-5-fluoro-1H-pyrazolo[3,4-b]pyridin-6-ol] | 1 to 30 µM |
| Oc1cc2c(cnn2-c2ccc(-c3ccccc3F)cc2)cc1F [Compound 13.3, 5-Fluoro-1-(2′-fluoro-[1,1′-biphenyl]-4-yl)-1H-indazol-6-ol] | 0.1 to 1 µM |
| Oc1ccc2cnn(-c3ccc(-c4ccc(O)c(Cl)c4)cc3)c2c1 [Compound 18.1, 1-(3′-Chloro-4′-hydroxy-[1,1′-biphenyl]-4-yl)-1H-indazol-6-ol] | 0.1 to 1 µM |
| COCC1(C)CCN(c2ccc(-n3ncc4cc(F)c(O)c(F)c43)cc2)CC1 [Compound 20.18, 5,7-Difluoro-1-(4-(4-(methoxymethyl)-4-methylpiperidin-1-yl)phenyl)-1H-indazol-6-ol] | < 0.1 µM |
| CS(=O)(=O)NC1CN(c2ccc(-n3ncc4cc(F)c(O)cc43)cc2)C1 [Compound 21.1, N-(1-(4-(5-Fluoro-6-hydroxy-1H-indazol-1-yl)phenyl)azetidin-3-yl)methanesulfonamide] | 1 to 30 µM |
| CC1(C)CN(c2ccc(-n3ncc4cc(F)c(O)c(F)c43)cc2)CCO1 [Compound 20.5, 1-(4-(2,2-Dimethylmorpholino)phenyl)-5,7-difluoro-1H-indazol-6-ol] | < 0.1 µM |
| CS(=O)(=O)N1CCN(c2ccc(-n3nnc4cc(F)c(O)c(F)c43)nc2)CC1 [Compound 26.16, 5,7-Difluoro-1-(5-(4-(methylsulfonyl)piperazin-1-yl)pyridin-2-yl)-1H-benzo[d][1,2,3]triazol-6-ol] | 0.1 to 1 µM |
| CS(=O)(=O)N1CCN(c2cnc(-n3ncc4cc(F)c(O)c(F)c43)nc2)CC1 [Compound 26.9, 5,7-Difluoro-1-(5-(4-(methylsulfonyl)piperazin-1-yl)pyrimidin-2-yl)-1H-indazol-6-ol] | 0.1 to 1 µM |
| Oc1c(F)cc2cnn(-c3ccc(N4CCCCC4)cc3)c2c1F [Compound 23.2, 5,7-Difluoro-1-(4-(piperidin-1-yl)phenyl)-1H-indazol-6-ol] | < 0.1 µM |
| CC1(C)CCN(c2cnc(-n3ncc4cc(F)c(O)c(F)c43)cn2)CC1 [Compound 26.6, 1-(5-(4,4-Dimethylpiperidin-1-yl)pyrazin-2-yl)-5,7-difluoro-1H-indazol-6-ol] | < 0.1 µM |
| C[C@@H]1CN(c2ccc(-n3ncc4cc(F)c(O)c(F)c43)cc2)C[C@H](C)O1 [Compound 20.7, 1-(4-(cis-2,6-Dimethylmorpholino)phenyl)-5,7-difluoro-1H-indazol-6-ol] | < 0.1 µM |

Same assay, conditions: 3 h, read-out: HSD17β13 % at 10 uM

| SMILES | inhibition at 10 µM |
| --- | --- |
| CC1(C)CCN(c2ccc(N3C(=O)C(O)c4cc(F)c(O)c(F)c43)cc2)CC1 (centres unmarked) [Compound 35, 1-(4-(4,4-Dimethylpiperidin-1-yl)phenyl)-5,7-difluoro-3,6-dihydroxyindolin-2-one hydrochloride] | < 20% |

Same assay, conditions: 3 h; at 10 uM compound; read-out: HSD17β13 % at 10 uM

| SMILES | inhibition at 10 µM |
| --- | --- |
| CC1(C)CCN(c2ccc(-n3ncc4cnc(O)c(F)c43)cc2)CC1 [Compound 25.4, 1-(4-(4,4-Dimethylpiperidin-1-yl)phenyl)-7-fluoro-1H-pyrazolo[4,3-c]pyridin-6-ol] | < 20% |
| CS(=O)(=O)N1CCN(c2ccc(-n3ncc4cc(F)c(O)nc43)cc2)CC1 [Compound 25.3, 5-Fluoro-1-(4-(4-(methylsulfonyl)piperazin-1-yl)phenyl)-1H-pyrazolo[3,4-b]pyridin-6-ol] | 35% |
